# Laboratory results: ChEMBL document CHEMBL1201862, “PubChem BioAssay data set” (2004)
# Calls of active or inactive are those of the source.
# Tests used:
# HEK293 = test: EBV LMP1 TES2 canonical NF-kB signalling blockers – cell-based, HEK293, luciferase, cherry-pick, dose response (AID 588343); format: functional; conditions: Homo sapiens
# [1] = biological target: 26S proteasome non-ATPase regulatory subunit 14 (Homo sapiens, UniProt O00487); test: inhibition of proteasome subunit RPN11 – biochemical, fluorescence polarization, uHTS hits, confirmation (AID 602368); format: functional
# [2] = biological target: 72 kDa type IV collagenase (Homo sapiens, UniProt P08253); test: Dose Response validation of uHTS RPN11 inhibitor hits using a MMP-2 Fluorescence assay.; format: functional
# Prothrombin = Prothrombin (Bos taurus, UniProt P00735); test: thrombin protease inhibitors – biochemical, fluorescence polarization, uHTS hits, dose response (AID 602369); format: functional
# [3] = reduction of Shn3 3'UTR-driven luciferase in osteoblasts – cell-based, Clone20 osteoblasts, firefly luciferase, cherry-picked, dose response (AID 624132); format: functional;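 also: firefly luciferase luminescence from reporter carrying the Shn3 3'UTR in osteoblasts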
# [4] = loss of viability in HepG2 cells – cell-based, CellTiter-Glo, cherry-picked, cytotoxicity control for Shn3 inhibitor project, dose response (AID 624134); format: functional
# [5] = non-specific 3'UTR reporter inhibition in Clone20-Shn3RL – cell-based, Renilla luciferase, cherry-picked, counter-screen for Shn3 inhibitor project, dose response (AID 624133); format: functional
# Fatty acid synthase [6] = biological target: T1, Fatty acid synthase (Homo sapiens, UniProt P49327); test: inhibition of human FAS-TE enzyme activity – biochemical, endpoint fluorescence intensity, uHTS hits, dose response (AID 624327); format: functional;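 also: fluorescence from hydrolysis of an O-methyl fluorescein acyl ester substrate by the enzyme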
# Fatty acid synthase [7] = biological target: T1, Fatty acid synthase; test: inhibition of human FAS-TE enzyme activity – biochemical, kinetic fluorescence intensity, dose response (AID 624326); format: functional;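 also: rate of fluorescence rise from hydrolysis of a fluorogenic O-methyl fluorescein ester substrate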
# [8] = biological target: T2, Low molecular weight phosphotyrosine protein phosphatase (Homo sapiens, UniProt P24666); format: functional; conditions: read-out: IC50_Mean;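 also: Dose-response confirmation assay measuring inhibition of LMPTP enzyme activity by fluorescence intensity read-out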
# T2 sequence (P24666 whole entry): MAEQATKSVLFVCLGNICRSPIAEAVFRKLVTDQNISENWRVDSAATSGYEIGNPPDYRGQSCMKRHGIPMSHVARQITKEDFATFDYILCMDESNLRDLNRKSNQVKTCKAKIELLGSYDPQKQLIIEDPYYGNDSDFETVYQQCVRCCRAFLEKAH
# [9] = biological target: DNA dC->dU-editing enzyme APOBEC-3A (Homo sapiens, UniProt P31941); test: A3A deaminase inhibition for selectivity – biochemical, dose response (AID 504722); format: functional
# [10] = biological target: DNA dC->dU-editing enzyme APOBEC-3G (Homo sapiens, UniProt Q9HC16); test: Dose Response confirmation of small molecule APOBEC3G DNA Deaminase Inhibitors via a fluorescence-based single-stranded DNA deaminase assay. [Related pubchem assays (depositor defined):AID493012, AID493028]; format: functional
# [11] = HPDE-C7 pancreatic duct cell viability loss – fluorescence, HTS (AID 430); format: functional, cell-based; conditions: Homo sapiens
# [12] = viability loss of HPDE-C7K cells – cell-based, fluorescence, HTS, primary screen (AID 431); format: functional; conditions: Homo sapiens
# INS1 = test: INS-1E survival protection against cytokine death – cell-based, luminescence, retest, dose response (AID 449756); format: functional; conditions: Rattus norvegicus;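 also: cell death triggered by IL-1 beta plus TNF-alpha plus IFN-gamma mixture; protective hits raise ATP signal compared with cytokine alone wells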
# [13] = Luminescence Cell-Based Dose Response to Identify Activators of 5'UTR Stem-Loop Driven Prion Protein mRNA Translation in H4-C Neuroglioblastoma Cells. [Related pubchem assays: 1829 (Project Summary), 1814 (Primary HTS)]; format: functional
# [14] = Luminescence Cell-Based Dose Response HTS to Identify Activators of Luciferase Translation or Activity in H4 […] Cells. [Related pubchem assays: 1829 (Project Summary), 1814 (Primary HTS)]; format: functional
# H4 = test: Luminescence Cell-Based Dose Response HTS to Identify Activators of 5'UTR Stem-Loop Driven Prion Protein mRNA Translation in H4 Neuroglioblastoma Cells. [Related pubchem assays: 1829 (Project Summary), 1814 (Primary HTS)]; format: functional; conditions: Homo sapiens
# [15] = Luminescence Cell-Based Dose Response to Identify Activators of Luciferase Translation or Activity in H4-C Neuroglioblastoma Cells. [Related pubchem assays: 1829 (Project Summary), 1814 (Primary HTS)]; format: functional
# [16] = Luminescence Cell-Based Dose Confirmation to Identify Activators of 5'UTR Stem-Loop Driven Alpha-Synuclein mRNA Translation in H4 Neuroglioblastoma Cells. [Related pubchem assays: 1829 (Project Summary), 1814 (Primary HTS)]; format: functional
# [17] = viability of PTEN-deleted HCT116 cells – cell-based, HCT116 PTEN knockout, dose response (AID 1047); format: functional;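 also: HCT116 colon tumor cells with PTEN knocked out; cells exposed to compound for 60 hours before readout; potency for loss of cell viability measured by luminescence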
# [18] = viability of HCT116 lacking mutant beta-catenin – cell-based, human colon tumor, dose response (AID 1045); format: functional;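 also: HCT116 colon tumor cells with beta catenin knocked out; cells exposed to compound for 60 hours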
# [19] = biological target: T3, Histone-lysine N-methyltransferase NSD2 (Homo sapiens, UniProt O96028); format: biochemical
# T3 sequence (O96028 whole entry): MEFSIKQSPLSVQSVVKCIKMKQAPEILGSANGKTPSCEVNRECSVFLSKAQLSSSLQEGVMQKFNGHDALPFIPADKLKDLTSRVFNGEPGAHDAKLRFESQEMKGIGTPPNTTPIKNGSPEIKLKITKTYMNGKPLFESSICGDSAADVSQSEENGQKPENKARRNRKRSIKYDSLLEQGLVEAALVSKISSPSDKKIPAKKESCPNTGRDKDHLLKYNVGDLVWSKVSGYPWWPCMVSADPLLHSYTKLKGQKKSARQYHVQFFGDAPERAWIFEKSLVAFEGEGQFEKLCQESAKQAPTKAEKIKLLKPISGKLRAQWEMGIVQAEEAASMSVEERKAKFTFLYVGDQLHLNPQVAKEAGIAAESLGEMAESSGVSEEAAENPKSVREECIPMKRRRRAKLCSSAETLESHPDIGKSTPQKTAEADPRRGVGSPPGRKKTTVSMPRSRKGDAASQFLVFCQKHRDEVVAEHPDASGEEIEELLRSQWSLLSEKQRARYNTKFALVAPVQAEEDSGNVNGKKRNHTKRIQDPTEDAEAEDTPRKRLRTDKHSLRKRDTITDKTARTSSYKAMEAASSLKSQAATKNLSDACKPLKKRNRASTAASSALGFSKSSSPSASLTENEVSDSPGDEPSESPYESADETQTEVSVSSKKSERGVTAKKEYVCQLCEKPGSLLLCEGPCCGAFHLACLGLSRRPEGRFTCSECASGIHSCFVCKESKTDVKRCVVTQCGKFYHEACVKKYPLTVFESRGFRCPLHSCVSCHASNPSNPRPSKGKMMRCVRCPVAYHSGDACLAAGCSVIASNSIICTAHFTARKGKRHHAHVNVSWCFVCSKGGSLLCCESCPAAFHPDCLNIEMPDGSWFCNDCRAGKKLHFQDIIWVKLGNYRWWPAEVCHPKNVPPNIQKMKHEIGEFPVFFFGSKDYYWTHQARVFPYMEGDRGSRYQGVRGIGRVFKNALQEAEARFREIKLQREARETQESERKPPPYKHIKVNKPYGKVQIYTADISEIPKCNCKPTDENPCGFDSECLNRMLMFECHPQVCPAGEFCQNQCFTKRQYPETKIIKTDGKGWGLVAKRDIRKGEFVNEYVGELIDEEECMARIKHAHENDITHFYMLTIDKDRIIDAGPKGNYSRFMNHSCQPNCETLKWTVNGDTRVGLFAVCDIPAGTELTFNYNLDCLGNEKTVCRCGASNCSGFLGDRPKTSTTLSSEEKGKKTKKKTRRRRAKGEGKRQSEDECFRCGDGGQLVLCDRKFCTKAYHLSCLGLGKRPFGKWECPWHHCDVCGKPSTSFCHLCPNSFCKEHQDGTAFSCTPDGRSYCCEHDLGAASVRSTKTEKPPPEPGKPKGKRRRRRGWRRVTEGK
# [20] = luciferase reporter signal suppression in cells – H4 neuroglioma cells, luminescence, dose response (AID 1990); format: functional, cell-based
# [21] = Luminescence Cell-Based Dose Response HTS to Identify Inhibitors of 5'UTR Stem-Loop Driven Prion Protein mRNA Translation in H4 Neuroglioblastoma Cells. [Related pubchem assays: 1827 (Project Summary), 1813 (Primary HTS)]; format: functional
# [22] = alpha-synuclein stem-loop luciferase translation blockers – H4 neuroglioma cells, luminescence, confirmation (AID 1988); format: functional, cell-based
# Chain of 72 kDa type IV collagenase (P08253 whole entry): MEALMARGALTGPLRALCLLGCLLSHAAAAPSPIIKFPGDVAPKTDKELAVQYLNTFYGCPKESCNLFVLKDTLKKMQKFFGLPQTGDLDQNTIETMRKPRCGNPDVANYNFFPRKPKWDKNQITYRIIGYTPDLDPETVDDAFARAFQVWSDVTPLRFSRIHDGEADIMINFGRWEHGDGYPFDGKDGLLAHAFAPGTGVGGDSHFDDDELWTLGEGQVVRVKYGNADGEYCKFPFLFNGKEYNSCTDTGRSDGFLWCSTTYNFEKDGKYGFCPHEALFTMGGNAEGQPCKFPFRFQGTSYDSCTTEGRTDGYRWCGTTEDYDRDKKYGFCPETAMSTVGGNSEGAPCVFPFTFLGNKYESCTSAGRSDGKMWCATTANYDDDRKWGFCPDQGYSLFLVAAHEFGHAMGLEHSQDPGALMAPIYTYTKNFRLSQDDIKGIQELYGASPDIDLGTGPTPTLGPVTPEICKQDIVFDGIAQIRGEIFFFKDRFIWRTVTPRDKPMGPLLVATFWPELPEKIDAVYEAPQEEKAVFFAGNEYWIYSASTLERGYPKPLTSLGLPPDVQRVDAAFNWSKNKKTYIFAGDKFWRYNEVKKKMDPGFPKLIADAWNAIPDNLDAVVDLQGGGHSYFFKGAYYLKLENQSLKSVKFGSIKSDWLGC
# Chain of 26S proteasome non-ATPase regulatory subunit 14 (O00487 whole entry): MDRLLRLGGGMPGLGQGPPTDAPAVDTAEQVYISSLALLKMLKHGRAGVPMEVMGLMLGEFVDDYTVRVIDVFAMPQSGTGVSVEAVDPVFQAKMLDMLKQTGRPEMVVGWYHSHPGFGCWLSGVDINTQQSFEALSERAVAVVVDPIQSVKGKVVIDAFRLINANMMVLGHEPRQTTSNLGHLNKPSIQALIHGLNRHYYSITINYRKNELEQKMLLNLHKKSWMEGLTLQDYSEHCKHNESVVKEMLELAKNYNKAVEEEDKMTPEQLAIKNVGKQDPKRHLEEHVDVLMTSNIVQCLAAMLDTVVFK
# T1 sequence (P49327 whole entry): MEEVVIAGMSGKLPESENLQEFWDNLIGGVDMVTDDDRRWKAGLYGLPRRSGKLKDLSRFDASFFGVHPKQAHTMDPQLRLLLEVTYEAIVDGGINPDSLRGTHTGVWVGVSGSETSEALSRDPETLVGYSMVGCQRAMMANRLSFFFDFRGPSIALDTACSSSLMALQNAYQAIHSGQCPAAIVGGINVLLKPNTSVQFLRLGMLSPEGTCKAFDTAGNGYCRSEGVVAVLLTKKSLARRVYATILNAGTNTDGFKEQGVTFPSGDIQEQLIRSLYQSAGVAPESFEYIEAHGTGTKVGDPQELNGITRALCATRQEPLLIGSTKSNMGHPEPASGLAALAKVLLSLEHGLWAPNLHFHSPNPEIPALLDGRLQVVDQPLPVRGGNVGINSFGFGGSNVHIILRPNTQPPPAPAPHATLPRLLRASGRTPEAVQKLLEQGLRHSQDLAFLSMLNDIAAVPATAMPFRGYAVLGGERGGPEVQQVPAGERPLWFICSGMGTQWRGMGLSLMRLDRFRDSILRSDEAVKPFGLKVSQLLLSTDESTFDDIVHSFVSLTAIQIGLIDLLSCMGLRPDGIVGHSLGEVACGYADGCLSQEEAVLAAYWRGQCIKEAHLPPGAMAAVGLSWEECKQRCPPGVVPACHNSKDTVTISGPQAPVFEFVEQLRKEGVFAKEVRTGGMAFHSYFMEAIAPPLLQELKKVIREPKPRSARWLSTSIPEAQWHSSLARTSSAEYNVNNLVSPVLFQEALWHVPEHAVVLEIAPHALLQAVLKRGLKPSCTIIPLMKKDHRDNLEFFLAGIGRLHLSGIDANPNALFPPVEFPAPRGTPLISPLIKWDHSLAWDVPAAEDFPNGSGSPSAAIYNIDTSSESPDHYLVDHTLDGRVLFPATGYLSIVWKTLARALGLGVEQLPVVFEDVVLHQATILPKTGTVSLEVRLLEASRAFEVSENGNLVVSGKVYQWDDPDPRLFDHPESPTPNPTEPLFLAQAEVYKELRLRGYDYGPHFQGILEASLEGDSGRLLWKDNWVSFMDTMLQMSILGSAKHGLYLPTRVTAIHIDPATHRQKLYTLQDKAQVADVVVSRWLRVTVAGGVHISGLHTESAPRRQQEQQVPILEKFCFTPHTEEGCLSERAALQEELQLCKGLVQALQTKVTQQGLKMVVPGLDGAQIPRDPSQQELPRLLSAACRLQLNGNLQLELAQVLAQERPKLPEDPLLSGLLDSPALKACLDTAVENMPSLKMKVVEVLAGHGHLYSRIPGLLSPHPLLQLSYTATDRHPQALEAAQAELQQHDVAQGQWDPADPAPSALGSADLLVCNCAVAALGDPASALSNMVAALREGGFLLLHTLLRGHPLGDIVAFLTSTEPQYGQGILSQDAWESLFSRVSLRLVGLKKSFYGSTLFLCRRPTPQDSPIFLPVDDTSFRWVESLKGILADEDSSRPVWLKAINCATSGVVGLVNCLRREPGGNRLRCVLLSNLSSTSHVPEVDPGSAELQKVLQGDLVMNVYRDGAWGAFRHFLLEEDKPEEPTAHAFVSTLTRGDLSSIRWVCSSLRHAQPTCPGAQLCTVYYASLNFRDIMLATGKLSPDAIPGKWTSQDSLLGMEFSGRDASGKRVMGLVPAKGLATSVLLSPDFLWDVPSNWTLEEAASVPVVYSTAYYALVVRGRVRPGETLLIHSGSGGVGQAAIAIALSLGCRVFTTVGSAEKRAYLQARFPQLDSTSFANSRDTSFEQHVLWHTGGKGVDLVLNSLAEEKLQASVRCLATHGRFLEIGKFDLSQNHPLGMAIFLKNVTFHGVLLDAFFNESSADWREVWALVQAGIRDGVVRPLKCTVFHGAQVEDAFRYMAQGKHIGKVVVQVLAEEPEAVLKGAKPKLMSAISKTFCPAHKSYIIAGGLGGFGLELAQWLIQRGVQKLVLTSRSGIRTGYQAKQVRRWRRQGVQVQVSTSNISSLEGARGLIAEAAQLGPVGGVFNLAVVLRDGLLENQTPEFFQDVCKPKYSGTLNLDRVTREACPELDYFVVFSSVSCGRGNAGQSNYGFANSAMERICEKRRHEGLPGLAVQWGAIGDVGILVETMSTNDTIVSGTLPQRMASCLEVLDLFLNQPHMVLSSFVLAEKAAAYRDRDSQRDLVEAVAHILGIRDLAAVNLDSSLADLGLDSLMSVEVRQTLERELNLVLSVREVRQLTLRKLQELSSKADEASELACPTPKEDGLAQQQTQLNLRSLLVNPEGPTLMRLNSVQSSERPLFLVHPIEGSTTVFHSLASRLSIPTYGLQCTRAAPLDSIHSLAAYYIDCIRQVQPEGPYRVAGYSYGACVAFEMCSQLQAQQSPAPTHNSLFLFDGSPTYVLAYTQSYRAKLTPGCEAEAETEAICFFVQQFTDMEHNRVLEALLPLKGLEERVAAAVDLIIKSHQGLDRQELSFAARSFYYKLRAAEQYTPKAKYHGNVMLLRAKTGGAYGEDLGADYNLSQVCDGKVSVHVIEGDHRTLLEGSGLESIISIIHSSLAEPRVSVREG
# Chain of DNA dC->dU-editing enzyme APOBEC-3G (Q9HC16 whole entry): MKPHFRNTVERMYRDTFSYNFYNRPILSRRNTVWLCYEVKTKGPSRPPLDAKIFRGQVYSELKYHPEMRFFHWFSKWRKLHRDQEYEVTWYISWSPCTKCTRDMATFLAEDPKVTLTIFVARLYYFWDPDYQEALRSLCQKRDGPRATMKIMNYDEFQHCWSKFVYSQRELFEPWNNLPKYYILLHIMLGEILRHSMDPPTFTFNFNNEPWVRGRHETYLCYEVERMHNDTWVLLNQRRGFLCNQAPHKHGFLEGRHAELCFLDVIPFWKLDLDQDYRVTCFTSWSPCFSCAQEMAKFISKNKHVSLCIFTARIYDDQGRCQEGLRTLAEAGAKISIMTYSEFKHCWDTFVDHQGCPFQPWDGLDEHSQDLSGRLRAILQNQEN
# Chain of DNA dC->dU-editing enzyme APOBEC-3A (P31941 whole entry): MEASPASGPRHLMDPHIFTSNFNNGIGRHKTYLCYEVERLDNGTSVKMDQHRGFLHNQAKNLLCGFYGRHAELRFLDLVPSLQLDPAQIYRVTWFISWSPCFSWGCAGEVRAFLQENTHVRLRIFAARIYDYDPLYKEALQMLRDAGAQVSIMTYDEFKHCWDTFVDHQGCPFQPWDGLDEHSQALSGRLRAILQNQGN
smiles,measurement,setting,value
O=C1C=Cc2cccc3ccc(O)c1c23,AC50,HEK293,18.1 µM (active)
COc1ccc(Cc2c(-c3ccc(C)cc3)nc3ccc(Cl)cn23)c(C)c1,IC50,[1],27.1 µM (active)
same,IC50,[2],92.4 µM (active)
same,IC50,Prothrombin,22.2 µM (active)
Cc1nc2c(OCc3ccc(Cl)cc3Cl)cccn2c1N(C)CC1CC1,AC50,[3],10 µM (active)
same,AC50,[4],35.3 µM (active)
same,AC50,[5],19.9 µM (active)
same,IC50,Fatty acid synthase [6],12.7 µM (active)
same,IC50,Fatty acid synthase [7],12.9 µM (active)
O=C(N/N=C/C(Cl)=C/c1ccccc1)c1ccc2c(c1)OCO2,IC50,[8],52.9 µM (inactive)
Nn1c(C2COc3ccccc3O2)n[nH]c1=S (centres undefined),IC50,[9],> 100 µM (inactive)
same,IC50,[10],5.09 µM (active)
O=C(Nc1ccc2c(c1)CCC2)c1cc(S(=O)(=O)N2CCN(c3ccccc3)CC2)ccc1Cl,IC50,[1],50.9 µM (active)
same,IC50,[2],> 100 µM (inactive)
same,IC50,Prothrombin,31.6 µM (active)
O=C(c1ccccc1)C(CCC(CN1CCOCC1)C(=O)c1ccccc1)CN1CCOCC1 (centres undefined),EC50,[11],11.1 µM (active)
same,EC50,[12],6.43 µM (active)
same,AC50,HEK293,6.35 µM (active)
same,AC50,INS1,> 120 µM (inactive)
same,AC50,[3],12.8 µM (active)
same,AC50,[4],12.6 µM (active)
same,AC50,[5],11.9 µM (active)
Oc1c(C2=CC(C(F)(F)F)=NCCN2)ccc2ccccc12,EC50,[13],364 nM (active)
same,EC50,[14],< 100 nM (inconclusive)
same,EC50,H4,< 100 nM (active)
same,EC50,[15],345 nM (active)
same,EC50,[16],337 nM (active)
Cc1cc(C)cc(NC(=O)/C(C#N)=C/c2cn(CC(=O)NCc3ccco3)c3ccccc23)c1,EC50,[17],8.2 µM (active)
same,EC50,[18],10.6 µM (active)
same,AC50,INS1,3.92 µM (active)
CC(=O)NC1=C(N2CC2C)C(=O)C(NC(C)=O)=C(N2CC2C)C1=O (centres undefined),AC50,[19],10.2 µM (active)
Cc1cc(N2CCN(c3nc(-c4ccc([N+](=O)[O-])cc4)cs3)CC2)c2ccccc2n1,IC50,[8],4.77 µM (active)
NC(=O)c1sc2nc3c(c(-c4cccs4)c2c1N)CCCC3,EC50,[20],< 100 nM (active)
same,EC50,[21],125 nM (active)
same,EC50,[22],16.1 µM (active)
same,EC50,[17],36.5 µM (active)
same,EC50,[18],118 µM (active)
COc1ccc(C(=O)C[n+]2ccc3c(c2)nc(-c2ccc(OC)cc2OC)n3C)cc1,EC50,[17],31.2 µM (active)
same,EC50,[18],22 µM (active)
